Legend:
[1] = biological target: T1, hCOX-2 in HNSCC 1483 cells (Homo sapiens, UniProt P35354); format: cell-based; details: at 5 μM
T1 sequence (P35354 18-604): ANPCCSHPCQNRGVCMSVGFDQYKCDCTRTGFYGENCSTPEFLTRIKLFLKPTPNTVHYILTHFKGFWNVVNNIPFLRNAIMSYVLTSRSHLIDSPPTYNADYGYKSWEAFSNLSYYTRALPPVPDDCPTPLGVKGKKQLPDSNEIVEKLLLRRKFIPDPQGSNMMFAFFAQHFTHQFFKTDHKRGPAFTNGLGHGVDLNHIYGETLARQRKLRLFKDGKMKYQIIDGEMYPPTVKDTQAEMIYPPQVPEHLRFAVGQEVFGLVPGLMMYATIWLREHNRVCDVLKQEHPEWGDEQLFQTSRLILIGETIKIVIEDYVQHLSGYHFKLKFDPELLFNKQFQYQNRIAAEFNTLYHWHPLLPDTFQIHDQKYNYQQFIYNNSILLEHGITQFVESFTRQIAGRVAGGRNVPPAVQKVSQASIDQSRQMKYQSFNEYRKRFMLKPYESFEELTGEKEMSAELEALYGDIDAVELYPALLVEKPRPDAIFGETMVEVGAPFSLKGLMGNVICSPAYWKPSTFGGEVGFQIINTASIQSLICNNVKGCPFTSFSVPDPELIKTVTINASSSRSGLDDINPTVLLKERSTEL

[2] = system: peroxisome proliferator-activated receptor (PPAR)γ; details: cell culture; cited from earlier work
[3] = biological target: T2, ovine COX-1 (Ovis aries, UniProt P05979); format: biochemical
T2 sequence (P05979 25-600): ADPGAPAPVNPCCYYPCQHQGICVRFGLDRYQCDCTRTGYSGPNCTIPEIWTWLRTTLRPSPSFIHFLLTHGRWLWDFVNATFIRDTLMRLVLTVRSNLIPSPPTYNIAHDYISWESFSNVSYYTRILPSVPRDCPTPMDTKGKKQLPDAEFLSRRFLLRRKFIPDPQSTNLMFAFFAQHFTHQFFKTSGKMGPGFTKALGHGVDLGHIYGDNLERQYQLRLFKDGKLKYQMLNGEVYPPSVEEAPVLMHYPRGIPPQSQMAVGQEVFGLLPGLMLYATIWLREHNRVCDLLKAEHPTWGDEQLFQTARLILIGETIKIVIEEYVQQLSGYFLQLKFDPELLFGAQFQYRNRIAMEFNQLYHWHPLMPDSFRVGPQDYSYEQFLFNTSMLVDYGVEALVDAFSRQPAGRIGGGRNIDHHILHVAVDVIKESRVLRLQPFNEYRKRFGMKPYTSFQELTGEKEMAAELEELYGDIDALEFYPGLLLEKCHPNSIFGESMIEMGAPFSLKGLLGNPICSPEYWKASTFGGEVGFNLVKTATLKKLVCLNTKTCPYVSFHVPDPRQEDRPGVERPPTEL

[4] = biological target: T3, murine COX-2 (Mus musculus, UniProt Q05769); assay: biochemical; details: COX-2 IC50, purified mCOX-2; 5 μM AA
T3 sequence (Q05769 18-604): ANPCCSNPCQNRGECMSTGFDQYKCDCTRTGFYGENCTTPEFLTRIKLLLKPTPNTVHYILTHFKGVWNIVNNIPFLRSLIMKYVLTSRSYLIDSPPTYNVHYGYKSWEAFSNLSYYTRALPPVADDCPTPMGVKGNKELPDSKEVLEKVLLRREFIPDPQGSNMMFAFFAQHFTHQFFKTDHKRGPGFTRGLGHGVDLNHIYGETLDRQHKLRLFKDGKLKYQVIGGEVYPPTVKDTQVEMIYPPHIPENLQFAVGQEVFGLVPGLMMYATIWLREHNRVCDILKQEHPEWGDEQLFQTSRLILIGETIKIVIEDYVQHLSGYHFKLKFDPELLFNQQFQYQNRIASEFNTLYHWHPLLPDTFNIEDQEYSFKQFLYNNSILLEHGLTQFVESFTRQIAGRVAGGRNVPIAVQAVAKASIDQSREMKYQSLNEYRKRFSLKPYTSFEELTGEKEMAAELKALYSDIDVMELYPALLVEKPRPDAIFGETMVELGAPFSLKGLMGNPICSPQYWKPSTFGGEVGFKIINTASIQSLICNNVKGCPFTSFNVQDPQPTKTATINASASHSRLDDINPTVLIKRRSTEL

Row | inhibition of hCOX-2 in HNSCC 1483 cells (in words) [1] | improvement in activity against COX-1 as compared with reference compound 2 [3] | IC50 [4] | Structure (SMILES) | activation of PPARγ (in words) [2]
1 | no inhibition | – | – | CSc1ccc(/C=C2\C=C(CC(=O)O)c3cc(F)ccc32)cc1 [compound 2, (E)-2-(5-fluoro-1-(4-(methylthio)benzylidene)-1H-inden-3-yl)acetic acid] | –
2 | no inhibition | – | – | O=C(O)CC1=C/C(=C\c2ccc(-c3ccccc3)cc2)c2ccc(F)cc21 [compound 13a] | potent activator
3 | – | more than 4 fold | 14 µM | O=C(CC1=C/C(=C\c2ccc(-c3ccccc3)cc2)c2ccc(F)cc21)NS(=O)(=O)C(F)(F)F [compound 21c, (E)-2-(1-([1,1′-Biphenyl]-4-ylmethylene)-5-fluoro-1H-inden-3-yl)-N-((trifluoromethyl)sulfonyl)-acetamide] | –

Source: PMC3297362 (Journal of Medicinal Chemistry, 2012)
